Laboratory results from US20220202824A1, “Methods for Treating Centronuclear Myopathy” (Stemline Therapeutics, Inc., priority 2018, published 2022).
Where two headings read alike, the source gives them in different places.

Columns and labels:
[1] = target: PIK3C2B (Homo sapiens, UniProt O00750); conditions: cited from earlier work; for IC50: read-out: IC50 for PIK3C2B
[2] = target: PI3Kβ (Homo sapiens, UniProt P42338); conditions: literature value; read-out: IC50 for other PI3Ks: PI3Kβ; cited from earlier work
[3] = system: 395 kinases; test: KINOMEscan competitive binding profiling assay of 395 kinases (Ambit Biosciences); conditions: single concentration 10 μM
Excerpt: Initially, 3-{[(3S)-4-(6,6-dimethyl-4-oxo-4,5,6,7-tetrahydro[1,3]thiazolo[5,4-c]pyridin-2-yl)morpholin-3-yl]methyl}-N,N,1-trimethyl-1H-indole-5-carboxamide (referred as Test Compound here in Example 2) was screened against kinase targets representing diverse protein kinase family members for competitive binding using a commercially available profiling assay of 395 kinases (Ambit Biosciences, KINOMEscan), and the compound was found most likely to inhibit the kinase activity of PI3Ks compared to other kinases.

[4] = target: PIK3C2A (PI3K-C2 alpha) (Homo sapiens, UniProt O00443); test: SelectScreen Adapta universal kinase assay, PIK3C2A; format: biochemical; conditions: [ATP] 10 uM; for inhibition at 0.00101 µM / inhibition at 0.00303 µM / inhibition at 0.0091 µM / inhibition at 0.0273 µM / inhibition at 0.082 µM / inhibition at 0.247 µM / inhibition at 0.741 µM / inhibition at 2.222 µM / inhibition at 6.667 µM / inhibition at 20 µM: PIK3C2A; for inhibition at 0.00101 µM: Test Compound 1.01 nM; for inhibition at 0.00303 µM: Test Compound 3.03 nM; for inhibition at 0.0091 µM: Test Compound 9.1 nM; for inhibition at 0.0273 µM: Test Compound 27.3 nM; for inhibition at 0.082 µM: Test Compound 82 nM; for inhibition at 0.247 µM: Test Compound 247 nM; for inhibition at 0.741 µM: Test Compound 741 nM; for inhibition at 2.222 µM: Test Compound 2222 nM; for inhibition at 6.667 µM: Test Compound 6667 nM; for inhibition at 20 µM: Test Compound 20000 nM
Procedure: (§1) Kinase activities of PIK3C2B (and PIK3C2A for comparison) were obtained using the SelectScreen™ Profiling Service (Invitrogen) based on Adapta™ universal kinase assay protocol and conditions (Invitrogen Corporation, Cat. No. PV5099).
(§2) Adapta™ universal kinase assay: The assay itself can be divided into two phases: a kinase reaction phase, and an ADP detection phase. In the kinase reaction phase, all components required for the kinase reaction are added to the well, and the reaction is allowed to incubate for 60 minutes. After the reaction, a detection solution consisting of a europium labeled anti-ADP antibody, an Alexa Fluor™ 647 labeled ADP tracer, and EDTA (to stop the kinase reaction) is added to the assay well. ADP formed by the kinase reaction (in the absence of an inhibitor) displaces the Alexa Fluor® 647 labeled ADP tracer from the antibody, resulting in a decrease in the TR-FRET signal. In the presence of an inhibitor, the amount of ADP formed by the kinase reaction is reduced, and the resulting intact antibody-tracer interaction results in a high TR-FRET signal. ADP formation is determined by calculating the emission ratio from the assay well.
(§3) The emission ratio is calculated by dividing the intensity of the tracer (acceptor) emission by the intensity of the Eu (donor) emission at 615 nm as shown in the equation below. Emission Ratio=AlexaFluor™647 Emission (665 nm)/Europium Emission (615 nm).
(§4) The Test Compound was screened in 1% DMSO (final solution). For 10-point titrations, 3-fold serial dilutions were conducted from the starting concentrations of 20,000 nM for PIK3C2A and 1,000 nM for PIK3C2B.
(§5) For PIK3C2A (PI3K-C2 alpha), the 2×PIK3C2A (PI3K-C2 alpha)/PI mixture was prepared in a Kinase Buffer including 00 mM HEPES pH 7.5, 200 mM NaCl, 0.06% CHAPS, 6 mM MgCl2, 2 mM EGTA. The final 10 μL Kinase Reaction has 8 ng PIK3C2A (PI3K-C2 alpha) and 100 μM PI in 57.5 mM HEPES pH 7.5, 100 mM NaCl, 0.03% CHAPS, 3 mM MgCl2, 1 mM EGTA. After the 1 hour Kinase Reaction incubation, 5 μL of Detection Mix was added.
(§6) All ATP Solutions were diluted to a 4× working concentration in water. ATP Km (apparent) was previously determined using a radiometric assay except when no substrate is available in which case an Adapta™ assay was conducted.
(§7) The Detection Mix was prepared in TR-FRET Dilution Buffer. The Detection mix consists of EDTA (30 mM), Eu-anti-ADP antibody (30 nM) and ADP tracer. The detection mix contains the EC60 concentration of tracer for 5-100 μM ATP.
(§8) Adapta™ assay protocol: 2.5 μL 4× Test Compound or 100 nL 100× plus 2.4 μL kinase buffer was dispensed onto white 384-well small volume polystyrene plate (Corning, Cat. No. 3674). Then 2.5 μL of 4×ATP Solution followed by 5 μL of 2× Substrate/Kinase Mixture were added. The final 10 μL Kinase Reaction has 8 ng PIK3C2B (PI3K-C2 beta) and 100 μM PI in 57.5 mM HEPES pH 7.5, 100 mM NaCl, 0.03% CHAPS, 3 mM MgCl2, 1 mM EGTA After 30 seconds plate shake and 2-minutes centrifugation at 1000×g for 2 minutes, Kinase Reaction incubation was performed at room temperature for 60 minutes.
(§9) After the Kinase Reaction incubation, 5 μL of Detection Mix was added. After 30 seconds plate shake and 2-minutes centrifugation at 1000×g for 2 minutes, Detection Mix equilibration incubation was performed at room temperature for 60 minutes.
(§10) Adapta™ data analysis: The fluorescent data obtained was analyzed using a data fitting program, XLfit (ID Business Solutions, Guildford, UK). IC50 values were derived by fitting a sigmoidal dose-response curve to a plot of assay readout over inhibitor concentration.

[5] = target: PIK3C2B (PI3K-C2 beta) (Homo sapiens, UniProt O00750); test: SelectScreen Adapta universal kinase assay, PIK3C2B; format: biochemical; conditions: for inhibition at 51 pM / inhibition at 0.000153 µM / inhibition at 0.00046 µM / inhibition at 0.00137 µM / inhibition at 0.0041 µM / inhibition at 0.0123 µM / inhibition at 0.037 µM / inhibition at 0.111 µM / inhibition at 0.333 µM / inhibition at 1 µM: PIK3C2B; for inhibition at 51 pM: Test Compound 0.051 nM; for inhibition at 0.000153 µM: Test Compound 0.153 nM; for inhibition at 0.00046 µM: Test Compound 0.46 nM; for inhibition at 0.00137 µM: Test Compound 1.37 nM; for inhibition at 0.0041 µM: Test Compound 4.1 nM; for inhibition at 0.0123 µM: Test Compound 12.3 nM; for inhibition at 0.037 µM: Test Compound 37 nM; for inhibition at 0.111 µM: Test Compound 111 nM; for inhibition at 0.333 µM: Test Compound 333 nM; for inhibition at 1 µM: Test Compound 1000 nM
Procedure: as §1, §2, §3, §4
as §5, with “PIK3C2B” for “PIK3C2A”, “beta),” for “alpha),”, “2×PIK3C2B” for “2×PIK3C2A”, “beta)/PI” for “alpha)/PI”, “100” for “a Kinase Buffer including 00”, “beta)” for “alpha)”
as §6, §7, §8, §9, §10

[6] = [ATP] 10 uM, read-out: % Inhibition point 1
[7] = [ATP] 10 uM, read-out: % Inhibition point 2

Chain of PIK3C2A (PI3K-C2 alpha) (O00443 whole entry): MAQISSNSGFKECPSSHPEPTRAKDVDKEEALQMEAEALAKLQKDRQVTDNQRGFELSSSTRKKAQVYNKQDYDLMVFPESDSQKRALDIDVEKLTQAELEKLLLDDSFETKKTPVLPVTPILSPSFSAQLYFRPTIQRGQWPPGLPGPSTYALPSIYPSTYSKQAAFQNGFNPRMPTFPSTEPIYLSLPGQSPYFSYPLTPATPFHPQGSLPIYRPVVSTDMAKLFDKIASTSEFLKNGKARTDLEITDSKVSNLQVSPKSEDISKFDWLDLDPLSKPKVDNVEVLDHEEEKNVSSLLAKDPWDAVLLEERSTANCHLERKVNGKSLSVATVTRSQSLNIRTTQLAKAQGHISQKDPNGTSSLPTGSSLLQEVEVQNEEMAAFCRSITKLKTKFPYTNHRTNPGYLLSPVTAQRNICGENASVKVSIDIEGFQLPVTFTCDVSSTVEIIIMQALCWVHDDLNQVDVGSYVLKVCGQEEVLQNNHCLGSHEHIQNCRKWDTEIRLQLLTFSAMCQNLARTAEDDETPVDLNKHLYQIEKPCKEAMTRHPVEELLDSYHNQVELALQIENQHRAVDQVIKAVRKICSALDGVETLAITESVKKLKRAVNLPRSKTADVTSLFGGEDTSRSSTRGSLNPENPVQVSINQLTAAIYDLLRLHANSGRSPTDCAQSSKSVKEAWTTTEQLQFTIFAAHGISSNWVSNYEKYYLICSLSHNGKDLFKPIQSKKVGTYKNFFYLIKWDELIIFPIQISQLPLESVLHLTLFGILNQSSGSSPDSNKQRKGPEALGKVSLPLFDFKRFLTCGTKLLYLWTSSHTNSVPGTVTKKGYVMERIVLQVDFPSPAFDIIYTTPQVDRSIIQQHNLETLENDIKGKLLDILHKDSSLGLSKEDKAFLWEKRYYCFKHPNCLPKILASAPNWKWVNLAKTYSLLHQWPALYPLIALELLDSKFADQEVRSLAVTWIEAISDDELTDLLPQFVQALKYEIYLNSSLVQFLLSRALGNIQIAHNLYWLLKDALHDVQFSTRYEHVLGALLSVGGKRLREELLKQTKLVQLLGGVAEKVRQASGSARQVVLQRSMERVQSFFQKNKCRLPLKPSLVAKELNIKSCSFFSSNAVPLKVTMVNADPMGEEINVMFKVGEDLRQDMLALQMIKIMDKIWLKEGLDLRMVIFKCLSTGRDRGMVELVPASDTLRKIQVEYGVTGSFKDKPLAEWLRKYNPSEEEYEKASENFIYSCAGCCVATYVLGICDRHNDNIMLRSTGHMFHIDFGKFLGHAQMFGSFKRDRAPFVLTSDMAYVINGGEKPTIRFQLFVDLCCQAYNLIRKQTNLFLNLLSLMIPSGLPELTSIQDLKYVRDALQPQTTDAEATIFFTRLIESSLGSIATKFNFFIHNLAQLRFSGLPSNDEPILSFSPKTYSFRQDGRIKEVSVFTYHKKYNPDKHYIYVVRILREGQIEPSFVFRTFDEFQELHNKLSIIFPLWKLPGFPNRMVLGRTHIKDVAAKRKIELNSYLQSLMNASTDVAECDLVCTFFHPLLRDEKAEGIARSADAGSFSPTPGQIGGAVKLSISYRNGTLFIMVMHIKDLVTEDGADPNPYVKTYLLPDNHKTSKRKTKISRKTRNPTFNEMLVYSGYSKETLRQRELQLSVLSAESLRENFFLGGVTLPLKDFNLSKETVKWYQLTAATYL
Chain of PIK3C2B (O00750 whole entry): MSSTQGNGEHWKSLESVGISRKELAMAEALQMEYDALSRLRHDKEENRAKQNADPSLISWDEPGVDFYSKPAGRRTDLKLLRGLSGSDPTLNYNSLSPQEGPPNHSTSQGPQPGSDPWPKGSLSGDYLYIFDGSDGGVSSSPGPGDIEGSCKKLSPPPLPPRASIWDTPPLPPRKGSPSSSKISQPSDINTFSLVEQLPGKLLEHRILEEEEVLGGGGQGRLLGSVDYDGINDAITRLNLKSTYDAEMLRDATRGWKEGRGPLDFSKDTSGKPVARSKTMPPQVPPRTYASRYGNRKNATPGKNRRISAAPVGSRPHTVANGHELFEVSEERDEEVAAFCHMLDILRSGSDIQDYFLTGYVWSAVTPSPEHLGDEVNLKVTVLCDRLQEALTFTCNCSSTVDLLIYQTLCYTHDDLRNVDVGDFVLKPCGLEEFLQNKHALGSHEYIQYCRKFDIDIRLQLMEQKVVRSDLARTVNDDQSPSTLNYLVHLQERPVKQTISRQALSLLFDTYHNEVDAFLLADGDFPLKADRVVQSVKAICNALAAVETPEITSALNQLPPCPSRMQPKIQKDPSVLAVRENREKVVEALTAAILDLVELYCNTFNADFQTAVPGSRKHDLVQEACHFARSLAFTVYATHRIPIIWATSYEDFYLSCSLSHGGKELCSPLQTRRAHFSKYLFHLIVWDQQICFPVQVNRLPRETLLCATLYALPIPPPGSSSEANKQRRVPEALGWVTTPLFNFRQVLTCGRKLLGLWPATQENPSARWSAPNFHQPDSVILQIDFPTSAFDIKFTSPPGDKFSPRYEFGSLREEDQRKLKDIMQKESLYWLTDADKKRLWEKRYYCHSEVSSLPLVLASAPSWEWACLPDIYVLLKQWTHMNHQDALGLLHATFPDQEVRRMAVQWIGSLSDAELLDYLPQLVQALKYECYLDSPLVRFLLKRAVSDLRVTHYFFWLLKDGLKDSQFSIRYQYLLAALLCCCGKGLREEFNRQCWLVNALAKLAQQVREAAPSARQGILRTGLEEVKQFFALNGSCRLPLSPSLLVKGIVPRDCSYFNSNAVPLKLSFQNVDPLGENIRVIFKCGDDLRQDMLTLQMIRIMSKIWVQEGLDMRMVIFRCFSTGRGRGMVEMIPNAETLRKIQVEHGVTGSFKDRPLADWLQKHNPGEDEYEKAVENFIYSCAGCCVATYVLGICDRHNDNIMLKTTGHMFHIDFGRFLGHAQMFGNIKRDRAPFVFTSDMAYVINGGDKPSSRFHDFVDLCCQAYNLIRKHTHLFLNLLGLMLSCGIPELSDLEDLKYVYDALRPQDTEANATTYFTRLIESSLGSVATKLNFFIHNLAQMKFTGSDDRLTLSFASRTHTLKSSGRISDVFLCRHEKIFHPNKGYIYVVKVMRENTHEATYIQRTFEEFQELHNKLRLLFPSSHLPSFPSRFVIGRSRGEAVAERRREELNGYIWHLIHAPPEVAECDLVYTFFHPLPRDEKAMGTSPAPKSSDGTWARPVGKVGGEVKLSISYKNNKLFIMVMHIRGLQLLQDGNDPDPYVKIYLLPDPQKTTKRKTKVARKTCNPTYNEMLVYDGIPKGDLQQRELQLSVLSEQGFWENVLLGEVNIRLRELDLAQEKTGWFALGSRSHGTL
Chain of PIK3C2B (PI3K-C2 beta) (O00750 whole entry): as above

## CC[C@H](Nc1ncnc2[nH]cnc12)c1nc2cccc(F)c2c(=O)n1-c1ccccc1
[1]
  IC50: 1000 nM

## Cc1c(Cn2c(C)nc(=O)c3sc(N4CCOCC4)nc32)cccc1C(F)(F)F
[2]
  IC50: 6 nM
[1]; PI3Kβ over PIK3C2B
  selectivity in favor of PI3Kβ (Class I): 166-fold selectivity in favor of PI3Kβ (Class I) (Lin et al. ACS Med. Chem. Lett. 2012, 3, 524-529)
[1]; literature value
  IC50: 1000 nM

## CN(C)C(=O)c1ccc2c(c1)c(C[C@H]1COCCN1c1nc3c(s1)C(=O)NC(C)(C)C3)cn2C [Test Compound, 3-{[(3S)-4-(6,6-dimethyl-4-oxo-4,5,6,7-tetrahydro[1,3]thiazolo[5,4-c]pyridin-2-yl)morpholin-3-yl]methyl}-N,N,1-trimethyl-1H-indole-5-carboxamide]
[3]
  hits in kinase binding screen: no hits other than PI3Ks
[4]; read-out: % Inhibition point 1
  inhibition at 0.00101 µM: 25%
  inhibition at 0.00303 µM: -24%
  inhibition at 0.0091 µM: -3%
  inhibition at 0.0273 µM: 13%
  inhibition at 0.082 µM: 0%
  inhibition at 0.247 µM: 15%
  inhibition at 0.741 µM: 17%
  inhibition at 2.222 µM: 46%
  inhibition at 6.667 µM: 55%
  inhibition at 20 µM: 81%
[4]; read-out: % Inhibition point 2
  inhibition at 0.00101 µM: -12%
  inhibition at 0.00303 µM: 3%
  inhibition at 0.0091 µM: 16%
  inhibition at 0.0273 µM: -4%
  inhibition at 0.082 µM: 11%
  inhibition at 0.247 µM: 6%
  inhibition at 0.741 µM: 30%
  inhibition at 2.222 µM: 36%
  inhibition at 6.667 µM: 46%
  inhibition at 20 µM: 78%
[4]
  IC50: 4300 nM
[5]; PIK3C2B vs PIK3C2A IC50
  selectivity over C2A (Class II isoform): 449-fold selectivity over
[5]; [6]
  inhibition at 51 pM: 16%
  inhibition at 0.000153 µM: -3%
  inhibition at 0.00046 µM: 10%
  inhibition at 0.00137 µM: 21%
  inhibition at 0.0041 µM: 58%
  inhibition at 0.0123 µM: 61%
  inhibition at 0.037 µM: 74%
  inhibition at 0.111 µM: 92%
  inhibition at 0.333 µM: 94%
  inhibition at 1 µM: 93%
[5]; [7]
  inhibition at 51 pM: 17%
  inhibition at 0.000153 µM: 8%
  inhibition at 0.00046 µM: 21%
  inhibition at 0.00137 µM: 33%
  inhibition at 0.0041 µM: 27%
  inhibition at 0.0123 µM: 49%
  inhibition at 0.037 µM: 82%
  inhibition at 0.111 µM: 90%
  inhibition at 0.333 µM: 93%
  inhibition at 1 µM: 95%
[5]; [ATP] 10 uM
  IC50: 9.57 nM
